Assays:
Experiment in all cases: Test B pre-/postemergence plant response
Assay type in all cases: in vivo
[1] = system: blackgrass (Alopecurus myosuroides)
Summary of the method: (§1)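 Preemergence and postemergence (plants 2-18 cm, 1- to 4-leaf stage) applications used test chemicals in a non-phytotoxic solvent with surfactant. Plants were held in a greenhouse 13 to 15 days, then rated visually against controls on a 0-100 scale (0 no effect, 100 complete control).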

[2] = system: woolly cupgrass (Eriochloa villosa)
Summary of the method: as §1

[3] = system: eastern black (E.B.) nightshade (Solanum ptycanthum); settings: Preemergence
Summary of the method: as §1

[4] = system: catchweed bedstraw (Galium aparine); settings: Preemergence
Summary of the method: as §1

[5] = system: yellow nutsedge (Cyperus esculentus)
Summary of the method: as §1

[6] = system: velvetleaf (Abutilon theophrasti)
Summary of the method: as §1

[7] = system: wild oat (Avena fatua)
Summary of the method: as §1

[8] = system: downy bromegrass (Bromus tectorum)
Summary of the method: as §1

[9] = system: johnsongrass (Sorghum halepense)
Summary of the method: as §1

[10] = system: giant foxtail (Setaria faberii)
Summary of the method: as §1

[11] = system: morningglory (Ipomoea coccinea)
Summary of the method: as §1

[12] = system: green foxtail (Setaria viridis)
Summary of the method: as §1

[13] = system: pigweed (Amaranthus retroflexus)
Summary of the method: as §1

[14] = system: Italian ryegrass (Lolium multiflorum)
Summary of the method: as §1

[15] = Postemergence, 31 g ai/ha, scale 0 to 100, 0 no effect, 100 complete control
[16] = Postemergence, 62 g ai/ha, scale 0 to 100
[17] = Postemergence, 125 g ai/ha, scale 0 to 100
[18] = Postemergence, 250 g ai/ha, scale 0 to 100
[19] = Preemergence, 31 g ai/ha, 0 to 100 scale, 0 no effect, 100 complete control
[20] = Preemergence, 62 g ai/ha, scale 0 to 100
[21] = Preemergence, 125 g ai/ha, scale 0 to 100
[22] = Preemergence, 250 g ai/ha, scale 0 to 100
[23] = 31 g ai/ha, 0 to 100 scale, 0 no effect, 100 complete control

CCc1cc(-c2ccc(C(F)(F)F)cc2)nn1-c1c(O)c(C)nn(C)c1=O [Compound 16]
25: Plant response rating, Cupgrass, Woolly [2, 20] | Plant response rating, Johnsongrass [9, 19]
0: Plant response rating, Cupgrass, Woolly [2, 19] | Plant response rating, Nightshade, E. B. [3, 23] | Plant response rating, Nightshade, E. B. ([3]; 62 g ai/ha, scale 0 to 100) | Plant response rating, Nightshade, E. B. ([3]; 125 g ai/ha, scale 0 to 100) | Plant response rating, Nightshade, E. B. ([3]; 250 g ai/ha, scale 0 to 100) | Plant response rating, Galium [4, 23] | Plant response rating, Galium ([4]; 62 g ai/ha, scale 0 to 100) | Plant response rating, Galium ([4]; 125 g ai/ha, scale 0 to 100) | Plant response rating, Galium ([4]; 250 g ai/ha, scale 0 to 100) | Plant response rating, Nutsedge, Yellow [5, 15] | Plant response rating, Nutsedge, Yellow [5, 16] | Plant response rating, Nutsedge, Yellow [5, 17] | Plant response rating, Nutsedge, Yellow [5, 18] | Plant response rating, Nutsedge, Yellow [5, 19] | Plant response rating, Nutsedge, Yellow [5, 20] | Plant response rating, Nutsedge, Yellow [5, 21] | Plant response rating, Velvetleaf [6, 15] | Plant response rating, Velvetleaf [6, 16] | Plant response rating, Velvetleaf [6, 17] | Plant response rating, Velvetleaf [6, 18] | Plant response rating, Velvetleaf [6, 19] | Plant response rating, Velvetleaf [6, 20] | Plant response rating, Velvetleaf [6, 21] | Plant response rating, Velvetleaf [6, 22] | Plant response rating, Foxtail, Giant [10, 19] | Plant response rating, Foxtail, Giant [10, 20] | Plant response rating, Morningglory [11, 15] | Plant response rating, Morningglory [11, 16] | Plant response rating, Morningglory [11, 17] | Plant response rating, Morningglory [11, 18] | Plant response rating, Morningglory [11, 19] | Plant response rating, Morningglory [11, 20] | Plant response rating, Morningglory [11, 21] | Plant response rating, Morningglory [11, 22] | Plant response rating, Pigweed [13, 15] | Plant response rating, Pigweed [13, 16] | Plant response rating, Pigweed [13, 17] | Plant response rating, Pigweed [13, 18] | Plant response rating, Pigweed [13, 20] | Plant response rating, Pigweed [13, 21] | Plant response rating, Pigweed [13, 22]
20: Plant response rating, Nutsedge, Yellow [5, 22]
70: Plant response rating, Cupgrass, Woolly [2, 21] | Plant response rating, Bromegrass, Downy [8, 16] | Plant response rating, Johnsongrass [9, 20] | Plant response rating, Foxtail, Giant [10, 22]
85: Plant response rating, Foxtail, Giant [10, 15]
98: Plant response rating, Blackgrass [1, 15] | Plant response rating, Oat, Wild [7, 21] | Plant response rating, Johnsongrass [9, 15] | Plant response rating, Foxtail, Giant [10, 16] | Plant response rating, Foxtail, Green [12, 16]
100: Blackgrass plant response rating ([1]; 250 g ai/ha, preemergence, 0-100 scale) | Plant response rating, Blackgrass [1, 16] | Plant response rating, Blackgrass [1, 17] | Plant response rating, Blackgrass [1, 18] | Plant response rating, Blackgrass [1, 19] | Plant response rating, Blackgrass [1, 20] | Plant response rating, Blackgrass [1, 21] | Plant response rating, Cupgrass, Woolly [2, 17] | Plant response rating, Cupgrass, Woolly [2, 18] | Plant response rating, Oat, Wild [7, 16] | Plant response rating, Oat, Wild [7, 17] | Plant response rating, Oat, Wild [7, 18] | Plant response rating, Oat, Wild [7, 22] | Plant response rating, Bromegrass, Downy [8, 18] | Plant response rating, Bromegrass, Downy [8, 20] | Plant response rating, Bromegrass, Downy [8, 21] | Plant response rating, Bromegrass, Downy ([8]; Preemergence, 250 g ai/ha, scale 0 to 100 (0 no effect, 100 complete control)) | Plant response rating, Johnsongrass [9, 16] | Plant response rating, Johnsongrass [9, 17] | Plant response rating, Johnsongrass [9, 18] | Plant response rating, Johnsongrass [9, 21] | Plant response rating, Johnsongrass [9, 22] | Plant response rating, Foxtail, Giant [10, 17] | Plant response rating, Foxtail, Giant [10, 18] | Plant response rating, Foxtail, Green [12, 17] | Plant response rating, Foxtail, Green [12, 18] | Plant response rating, Foxtail, Green [12, 19] | Plant response rating, Foxtail, Green [12, 20] | Plant response rating, Foxtail, Green [12, 21] | Plant response rating, Foxtail, Green [12, 22] | Plant response rating, Ryegrass, Italian [14, 15] | Plant response rating, Ryegrass, Italian [14, 16] | Plant response rating, Ryegrass, Italian [14, 17] | Plant response rating, Ryegrass, Italian [14, 18] | Plant response rating, Ryegrass, Italian [14, 19] | Plant response rating, Ryegrass, Italian [14, 20] | Plant response rating, Ryegrass, Italian [14, 21] | Plant response rating, Ryegrass, Italian [14, 22]
90: Plant response rating, Oat, Wild [7, 19] | Plant response rating, Bromegrass, Downy [8, 17] | Plant response rating, Bromegrass, Downy [8, 19]
60: Plant response rating, Bromegrass, Downy [8, 15]
95: Plant response rating, Cupgrass, Woolly [2, 16] | Plant response rating, Cupgrass, Woolly [2, 22] | Plant response rating, Oat, Wild [7, 15] | Plant response rating, Oat, Wild [7, 20] | Plant response rating, Foxtail, Green [12, 15]
40: Plant response rating, Foxtail, Giant [10, 21]
80: Plant response rating, Cupgrass, Woolly [2, 15]
